Laboratory results reported in US4229435A, “Preparation of blood fraction” (priority 1978, dated 1980).
Blank lines part the entries; values can stand above or below the molecule they belong to.

Legend:
F VII = target: T1, F VII (Homo sapiens, UniProt P08709); assay: Coagulation factor VII activity in plasma after reducing agent + iodoacetic acid; type: biochemical; settings: 5 min 37° C., then iodoacetic acid
T1 construct: from tissue; host or cells: human citrated blood plasma
T1 sequence (P08709 61-466): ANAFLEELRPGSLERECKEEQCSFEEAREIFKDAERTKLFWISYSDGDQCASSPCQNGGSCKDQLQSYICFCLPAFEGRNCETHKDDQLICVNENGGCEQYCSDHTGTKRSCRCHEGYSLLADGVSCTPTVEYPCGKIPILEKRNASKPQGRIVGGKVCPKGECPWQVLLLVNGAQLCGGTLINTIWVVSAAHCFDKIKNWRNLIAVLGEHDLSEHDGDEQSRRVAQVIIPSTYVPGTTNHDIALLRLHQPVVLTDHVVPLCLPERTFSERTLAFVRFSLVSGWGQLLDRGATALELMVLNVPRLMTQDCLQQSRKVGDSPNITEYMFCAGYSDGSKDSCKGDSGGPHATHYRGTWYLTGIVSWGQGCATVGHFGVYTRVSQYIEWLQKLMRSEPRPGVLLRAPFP
Description: (§1) Human blood with anti-coagulating agent (9 parts blood+1 part 3.8% trisodium citrate) is centrifuged and the following tests with plasma were carried out:
(§2) The plasma is divided into 8 ml portions, which are preheated at 37° C. for 5 min. DTT is added in different concentrations, see table 1 below, and is incubated for 5 min. at 37° C. Then iodoacetic acid, 3 mol per mol DTT, is added, and incubation takes place for 15 min. at 37° C. The plasma samples are distributed in portions of about 0.2 ml and are immediately frozen at -70° C. Testing of different coagulation factors is made in known manner.
(§3) The plasma is divided into 8 ml portions, which are preheated at 37° C. for 5 min. DTE is added in different concentrations (see table 2), and is incubated for 5 minutes at 37° C. Then, iodoacetic acid (3 mol per mol DTE) is added and incubation is carried out for 15 minutes at 37° C. The plasma samples are distributed in portions of about 0.2 ml and are immediately frozen at -70° C. Testing of different coagulation factors is made in a manner known per se.
as §3, with “minutes. Lipoic acid” for “min. DTE”, “3),” for “2),”, “lipoic acid)” for “DTE)”
as §3, with “minutes. Mercaptoethanol” for “min. DTE”, “4),” for “2),”, “mercaptoethanol)” for “DTE)”
as §3, with “minutes. Potassium borohydride” for “min. DTE”, “5,” for “2),”, “potassium borohydride)” for “DTE)”

F XII = target: T2, F XII (Homo sapiens, UniProt P00748); assay: Coagulation factor XII activity in plasma after reducing agent + iodoacetic acid; type: biochemical; settings: 5 min 37° C., then iodoacetic acid
T2 construct: from tissue; host or cells: human citrated blood plasma
T2 sequence (P00748 20-615): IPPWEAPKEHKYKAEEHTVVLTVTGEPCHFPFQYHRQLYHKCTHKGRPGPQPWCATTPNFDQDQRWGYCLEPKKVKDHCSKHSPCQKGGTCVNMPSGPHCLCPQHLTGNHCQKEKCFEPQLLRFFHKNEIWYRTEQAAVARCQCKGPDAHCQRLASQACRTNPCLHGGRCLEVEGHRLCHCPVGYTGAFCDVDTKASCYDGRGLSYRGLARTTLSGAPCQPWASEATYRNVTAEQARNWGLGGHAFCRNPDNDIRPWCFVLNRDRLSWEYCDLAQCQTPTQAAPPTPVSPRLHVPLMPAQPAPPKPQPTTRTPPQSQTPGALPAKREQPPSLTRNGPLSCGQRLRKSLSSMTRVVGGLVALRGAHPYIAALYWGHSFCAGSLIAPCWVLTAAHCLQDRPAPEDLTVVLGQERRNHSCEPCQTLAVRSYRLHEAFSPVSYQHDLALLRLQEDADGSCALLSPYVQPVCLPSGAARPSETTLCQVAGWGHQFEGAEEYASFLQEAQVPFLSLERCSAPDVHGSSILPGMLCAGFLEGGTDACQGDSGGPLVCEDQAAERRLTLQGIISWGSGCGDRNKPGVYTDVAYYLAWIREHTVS
Description: as §1, §2, §3
as §3, with “minutes. Lipoic acid” for “min. DTE”, “3),” for “2),”, “lipoic acid)” for “DTE)”
as §3, with “minutes. Mercaptoethanol” for “min. DTE”, “4),” for “2),”, “mercaptoethanol)” for “DTE)”
as §3, with “minutes. Potassium borohydride” for “min. DTE”, “5,” for “2),”, “potassium borohydride)” for “DTE)”

[1] = human, 0.1 mg reducing agent/ml plasma (sample C)
[2] = human, 0.6 mg reducing agent/ml plasma
[3] = human, Table 1 sample D, 0.1 mg DTT/ml plasma
[4] = plasma + 0.14 mg reducing agent
[5] = plasma + 0.28 mg reducing agent

Compound: [BH4-].[K+] [KBH4, potassium borohydride]
Coagulation factor F VII (F VII; [4]): 131 % of control
Coagulation factor F VII (F VII; [5]): 127 % of control
Coagulation factor F XII (F XII; [4]): 86 % of control
Coagulation factor F XII (F XII; [5]): 83 % of control

Compound: O=C(O)CCCCC1CCSS1 (stereo not shown) [lipoic acid]
activity at 100 µg/mL (F VII; [1]): 252%
Coagulation factor F VII (F VII; plasma + 0.2 mg reducing agent): 203 % of control
Coagulation factor F VII (F VII; plasma + 0.4 mg reducing agent): 285 % of control
activity at 100 µg/mL (F XII; [1]): 74%
Coagulation factor F XII (F XII; plasma + 0.2 mg reducing agent): 78 % of control
Coagulation factor F XII (F XII; plasma + 0.4 mg reducing agent): 98 % of control

Compound: OCCS [mercaptoethanol]
Coagulation factor F VII (F VII; plasma + 0.2 mg reducing agent): 69 % of control
Coagulation factor F VII (F VII; plasma + 0.4 mg reducing agent): 29 % of control
Coagulation factor F XII (F XII; plasma + 0.2 mg reducing agent): 102 % of control
Coagulation factor F XII (F XII; plasma + 0.4 mg reducing agent): 121 % of control

The remaining lines, values ahead:

activity at 100 µg/mL (F VII; [1]): 61%
Coagulation factor F VII (F VII; plasma + 0.2 mg reducing agent): 30 % of control
Coagulation factor F VII (F VII; plasma + 0.4 mg reducing agent): 48 % of control
activity at 100 µg/mL (F XII; [1]): 78%
Coagulation factor F XII (F XII; plasma + 0.2 mg reducing agent): 1 % of control
Coagulation factor F XII (F XII; plasma + 0.4 mg reducing agent): 0 % of control
Compound: O[C@H](CS)[C@@H](O)CS [DTE, dithioerythritol]

activity at 100 µg/mL (F VII; [1]): 87%
activity at 600 µg/mL (F VII; [2]): 0%
activity at 100 µg/mL (F VII; [3]): 21%
Coagulation factor F VII (F VII; plasma + 0.4 mg reducing agent): 6 % of control
activity at 100 µg/mL (F XII; [1]): 78%
activity at 600 µg/mL (F XII; [2]): 0%
activity at 100 µg/mL (F XII; [3]): 18%
Coagulation factor F XII (F XII; plasma + 0.4 mg reducing agent): 0 % of control
Compound: O[C@H](CS)[C@H](O)CS [DTT, dithiothreitol]
